Results from patent US20260262643A1, “HERBICIDAL BENZOXAZINES” (FMC CORPORATION, priority 2022, published 2026).

How the values were obtained:
[1] = test system: wheat; assay: Test C postemergence; type: in vivo, Triticum aestivum; settings: 10 days, 0 to 100 scale (0 no effect, 100 complete control)
How it was run: (§1)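 Soil-applied (pre) and foliar (post, 1–2 leaf, 2–10 cm) sprays; surfactant-containing non-phytotoxic solvent vehicle; loam/sand substrate. Readout: visual % control at 10 d, greenhouse, versus untreated.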

[2] = test system: blackgrass; assay: Test C postemergence; type: in vivo, Alopecurus myosuroides; settings: 10 days, 0 to 100 scale (0 no effect, 100 complete control)
How it was run: as §1

[3] = test system: sedge, umbrella; assay: Test D flooded paddy test; type: in vivo, Cyperus difformis; settings: 250 g ai/ha, applied to paddy water, visual rating after 13 to 14 days, scale 0 to 100 (0 no effect, 100 complete control)
How it was run: (§2)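 Compounds go straight into paddy water over 2-leaf plants in pots flooded to 3 cm. Greenhouse holding lasts 13 to 14 days. Injury is scored by eye against controls from 0 (none) to 100 (complete control).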

[4] = test system: oat, wild; assay: Test C postemergence; type: in vivo, Avena fatua; settings: 10 days, 0 to 100 scale (0 no effect, 100 complete control)
How it was run: as §1

[5] = test system: barnyardgrass; assay: Test D flooded paddy test; type: in vivo, Echinochloa crus-galli; settings: 250 g ai/ha, applied to paddy water, visual rating after 13 to 14 days, scale 0 to 100 (0 no effect, 100 complete control)
How it was run: as §2

[6] = test system: galium; assay: Test C postemergence; type: in vivo, Galium aparine; settings: 10 days, 0 to 100 scale (0 no effect, 100 complete control)
How it was run: as §1

[7] = test system: ragweed; assay: Test C postemergence; type: in vivo, Ambrosia artemisiifolia; settings: 10 days, 0 to 100 scale (0 no effect, 100 complete control)
How it was run: as §1

[8] = test system: wheat; assay: Test C preemergence; type: in vivo, Triticum aestivum; settings: for Wheat plant response rating: 500 g ai/ha, preemergence, 0 to 100 scale (0 no effect, 100 complete control); for Plant response rating, Wheat: Preemergence, 125 g ai/ha, 0 to 100 scale, 0 no effect, 100 complete control
How it was run: as §1

[9] = test system: ducksalad; assay: Test D flooded paddy test; type: in vivo, Heteranthera limosa; settings: 250 g ai/ha, applied to paddy water, visual rating after 13 to 14 days, scale 0 to 100 (0 no effect, 100 complete control)
How it was run: as §2

[10] = test system: ryegrass, Italian; assay: Test C preemergence; type: in vivo, Lolium multiflorum; settings: for Ryegrass, Italian plant response rating: 500 g ai/ha, preemergence, 0 to 100 scale (0 no effect, 100 complete control); for Plant response rating, Ryegrass, Italian: Preemergence, 125 g ai/ha, 0 to 100 scale, 0 no effect, 100 complete control
How it was run: as §1

[11] = test system: kochia; assay: Test C postemergence; type: in vivo, Bassia scoparia; settings: 10 days, 0 to 100 scale (0 no effect, 100 complete control)
How it was run: as §1

[12] = test system: barnyardgrass; assay: Test C preemergence; type: in vivo, Echinochloa crusgalli; settings: for Barnyardgrass plant response rating: 500 g ai/ha, preemergence, 0 to 100 scale (0 no effect, 100 complete control); for Plant response rating, Barnyardgrass: Preemergence, 125 g ai/ha, 0 to 100 scale, 0 no effect, 100 complete control
How it was run: as §1

[13] = test system: horseweed; assay: Test C postemergence; type: in vivo, Erigeron canadensis; settings: 10 days, 0 to 100 scale (0 no effect, 100 complete control)
How it was run: as §1

[14] = test system: kochia; assay: Test C preemergence; type: in vivo, Bassia scoparia; settings: for Kochia plant response rating: 500 g ai/ha, preemergence, 0 to 100 scale (0 no effect, 100 complete control); for Plant response rating, Kochia: Preemergence, 125 g ai/ha, 0 to 100 scale, 0 no effect, 100 complete control
How it was run: as §1

[15] = test system: oat, wild; assay: Test C preemergence; type: in vivo, Avena fatua; settings: for Oat, Wild plant response rating: 500 g ai/ha, preemergence, 0 to 100 scale (0 no effect, 100 complete control); for Plant response rating, Oat, Wild: Preemergence, 125 g ai/ha, 0 to 100 scale, 0 no effect, 100 complete control
How it was run: as §1

[16] = test system: pigweed, palmer; assay: Test C postemergence; type: in vivo, Amaranthus palmeri; settings: 10 days, 0 to 100 scale (0 no effect, 100 complete control)
How it was run: as §1

[17] = test system: blackgrass; assay: Test C preemergence; type: in vivo, Alopecurus myosuroides; settings: for Blackgrass plant response rating: 500 g ai/ha, preemergence, 0 to 100 scale (0 no effect, 100 complete control); for Plant response rating, Blackgrass: Preemergence, 125 g ai/ha, 0 to 100 scale, 0 no effect, 100 complete control
How it was run: as §1

[18] = test system: soybean; assay: Test C postemergence; type: in vivo, Glycine max; settings: 10 days, 0 to 100 scale (0 no effect, 100 complete control)
How it was run: as §1

[19] = test system: rice; assay: Test D flooded paddy test; type: in vivo, Oryza sativa; settings: 250 g ai/ha, applied to paddy water, visual rating after 13 to 14 days, scale 0 to 100 (0 no effect, 100 complete control)
How it was run: as §2

[20] = test system: pigweed, palmer; assay: Test C preemergence; type: in vivo, Amaranthus palmeri; settings: for Pigweed, Palmer plant response rating: 500 g ai/ha, preemergence, 0 to 100 scale (0 no effect, 100 complete control); for Plant response rating, Pigweed, Palmer: Preemergence, 125 g ai/ha, 0 to 100 scale, 0 no effect, 100 complete control
How it was run: as §1

[21] = test system: corn; assay: Test C postemergence; type: in vivo, Zea mays; settings: 10 days, 0 to 100 scale (0 no effect, 100 complete control)
How it was run: as §1

[22] = test system: corn; assay: Test C preemergence; type: in vivo, Zea mays; settings: for Corn plant response rating: 500 g ai/ha, preemergence, 0 to 100 scale (0 no effect, 100 complete control); for Plant response rating, Corn: Preemergence, 125 g ai/ha, 0 to 100 scale, 0 no effect, 100 complete control
How it was run: as §1

[23] = test system: green foxtail; assay: Test C postemergence; type: in vivo, Setaria viridis; settings: 10 days, 0 to 100 scale (0 no effect, 100 complete control)
How it was run: as §1

[24] = test system: green foxtail; assay: Test C preemergence; type: in vivo, Setaria viridis; settings: for Foxtail, Green plant response rating: 500 g ai/ha, preemergence, 0 to 100 scale (0 no effect, 100 complete control); for Plant response rating, Foxtail, Green: Preemergence, 125 g ai/ha, 0 to 100 scale, 0 no effect, 100 complete control
How it was run: as §1

[25] = test system: soybean; assay: Test C preemergence; type: in vivo, Glycine max; settings: for Soybean plant response rating: 500 g ai/ha, preemergence, 0 to 100 scale (0 no effect, 100 complete control); for Plant response rating, Soybean: Preemergence, 125 g ai/ha, 0 to 100 scale, 0 no effect, 100 complete control
How it was run: as §1

[26] = test system: ryegrass, Italian; assay: Test C postemergence; type: in vivo, Lolium multiflorum; settings: 10 days, 0 to 100 scale (0 no effect, 100 complete control)
How it was run: as §1

[27] = test system: ragweed; assay: Test C preemergence; type: in vivo, Ambrosia artemisiifolia; settings: for Ragweed plant response rating: 500 g ai/ha, preemergence, 0 to 100 scale (0 no effect, 100 complete control); for Plant response rating, Ragweed: Preemergence, 125 g ai/ha, 0 to 100 scale, 0 no effect, 100 complete control
How it was run: as §1

[28] = test system: barnyardgrass; assay: Test C postemergence; type: in vivo, Echinochloa crusgalli; settings: 10 days, 0 to 100 scale (0 no effect, 100 complete control)
How it was run: as §1

CNc1ncn(-c2cccc(C(=O)N3C[C@H](C)Oc4c(C)cccc43)c2)n1 [Compound 337]
Plant response rating, Wheat ([1]; 500 g ai/ha, postemergence): 20
Plant response rating, Wheat ([1]; Postemergence, 125 g ai/ha): 10
Plant response rating, Blackgrass ([2]; 500 g ai/ha, postemergence): 90
Plant response rating, Blackgrass ([2]; Postemergence, 125 g ai/ha): 40
Plant response rating, Sedge, Umbrella (Flood) [3]: 0
Plant response rating, Oat, Wild ([4]; 500 g ai/ha, postemergence): 30
Plant response rating, Oat, Wild ([4]; Postemergence, 125 g ai/ha): 10
Plant response rating, Barnyardgrass (Flood) [5]: 0
Plant response rating, Galium ([6]; 500 g ai/ha, postemergence): 90
Plant response rating, Galium ([6]; Postemergence, 125 g ai/ha): 40
Plant response rating, Ragweed ([7]; 500 g ai/ha, postemergence): 60
Plant response rating, Ragweed ([7]; Postemergence, 125 g ai/ha): 20
Wheat plant response rating [8]: 10
Plant response rating, Wheat [8]: 0
Plant response rating, Ducksalad (Flood) [9]: 0
Ryegrass, Italian plant response rating [10]: 90
Plant response rating, Ryegrass, Italian [10]: 50
Plant response rating, Kochia ([11]; 500 g ai/ha, postemergence): 70
Plant response rating, Kochia ([11]; Postemergence, 125 g ai/ha): 50
Barnyardgrass plant response rating [12]: 90
Plant response rating, Barnyardgrass [12]: 30
Plant response rating, Horseweed ([13]; 500 g ai/ha, postemergence): 20
Plant response rating, Horseweed ([13]; Postemergence, 125 g ai/ha): 0
Kochia plant response rating [14]: 80
Plant response rating, Kochia [14]: 0
Oat, Wild plant response rating [15]: 20
Plant response rating, Oat, Wild [15]: 0
Plant response rating, Pigweed, Palmer ([16]; 500 g ai/ha, postemergence): 70
Plant response rating, Pigweed, Palmer ([16]; Postemergence, 125 g ai/ha): 20
Blackgrass plant response rating [17]: 50
Plant response rating, Blackgrass [17]: 20
Plant response rating, Soybean ([18]; 500 g ai/ha, postemergence): 100
Plant response rating, Soybean ([18]; Postemergence, 125 g ai/ha): 90
Plant response rating, Rice (Flood) [19]: 0
Pigweed, Palmer plant response rating [20]: 100
Plant response rating, Pigweed, Palmer [20]: 0
Plant response rating, Corn ([21]; 500 g ai/ha, postemergence): 60
Plant response rating, Corn ([21]; Postemergence, 125 g ai/ha): 10
Corn plant response rating [22]: 40
Plant response rating, Corn [22]: 0
Plant response rating, Foxtail, Green ([23]; 500 g ai/ha, postemergence): 40
Plant response rating, Foxtail, Green ([23]; Postemergence, 125 g ai/ha): 30
Foxtail, Green plant response rating [24]: 100
Plant response rating, Foxtail, Green [24]: 90
Soybean plant response rating [25]: 40
Plant response rating, Soybean [25]: 0
Plant response rating, Ryegrass, Italian ([26]; 500 g ai/ha, postemergence): 70
Plant response rating, Ryegrass, Italian ([26]; Postemergence, 125 g ai/ha): 20
Ragweed plant response rating [27]: 50
Plant response rating, Ragweed [27]: 30
Plant response rating, Barnyardgrass ([28]; 500 g ai/ha, postemergence): 60
Plant response rating, Barnyardgrass ([28]; Postemergence, 125 g ai/ha): 10

CCOC[C@H]1CN(C(=O)c2cc(-n3cnc(CC)n3)ccc2C)c2cccc(Cl)c2O1 [Compound 412]
Plant response rating, Wheat ([1]; Postemergence, 125 g ai/ha): 20
Plant response rating, Blackgrass ([2]; 500 g ai/ha, postemergence): 90
Plant response rating, Blackgrass ([2]; Postemergence, 125 g ai/ha): 60
Plant response rating, Sedge, Umbrella (Flood) [3]: 90
Plant response rating, Oat, Wild ([4]; 500 g ai/ha, postemergence): 50
Plant response rating, Oat, Wild ([4]; Postemergence, 125 g ai/ha): 20
Plant response rating, Barnyardgrass (Flood) [5]: 25
Plant response rating, Galium ([6]; 500 g ai/ha, postemergence): 100
Plant response rating, Galium ([6]; Postemergence, 125 g ai/ha): 100
Plant response rating, Ragweed ([7]; Postemergence, 125 g ai/ha): 90
Wheat plant response rating [8]: 30
Plant response rating, Wheat [8]: 30
Plant response rating, Ducksalad (Flood) [9]: 75
Ryegrass, Italian plant response rating [10]: 90
Plant response rating, Ryegrass, Italian [10]: 80
Plant response rating, Kochia ([11]; 500 g ai/ha, postemergence): 90
Plant response rating, Kochia ([11]; Postemergence, 125 g ai/ha): 80
Barnyardgrass plant response rating [12]: 80
Plant response rating, Barnyardgrass [12]: 60
Plant response rating, Horseweed ([13]; 500 g ai/ha, postemergence): 30
Plant response rating, Horseweed ([13]; Postemergence, 125 g ai/ha): 20
Kochia plant response rating [14]: 80
Plant response rating, Kochia [14]: 30
Oat, Wild plant response rating [15]: 0
Plant response rating, Oat, Wild [15]: 0
Plant response rating, Pigweed, Palmer ([16]; 500 g ai/ha, postemergence): 90
Plant response rating, Pigweed, Palmer ([16]; Postemergence, 125 g ai/ha): 80
Blackgrass plant response rating [17]: 90
Plant response rating, Blackgrass [17]: 50
Plant response rating, Soybean ([18]; Postemergence, 125 g ai/ha): 100
Plant response rating, Rice (Flood) [19]: 10
Pigweed, Palmer plant response rating [20]: 100
Plant response rating, Pigweed, Palmer [20]: 100
Plant response rating, Corn ([21]; 500 g ai/ha, postemergence): 20
Plant response rating, Corn ([21]; Postemergence, 125 g ai/ha): 20
Corn plant response rating [22]: 30
Plant response rating, Corn [22]: 0
Plant response rating, Foxtail, Green ([23]; 500 g ai/ha, postemergence): 90
Plant response rating, Foxtail, Green ([23]; Postemergence, 125 g ai/ha): 80
Foxtail, Green plant response rating [24]: 100
Plant response rating, Foxtail, Green [24]: 100
Soybean plant response rating [25]: 90
Plant response rating, Soybean [25]: 60
Plant response rating, Ryegrass, Italian ([26]; Postemergence, 125 g ai/ha): 70
Ragweed plant response rating [27]: 100
Plant response rating, Ragweed [27]: 50
Plant response rating, Barnyardgrass ([28]; 500 g ai/ha, postemergence): 80
Plant response rating, Barnyardgrass ([28]; Postemergence, 125 g ai/ha): 40
